The source of these data is patent publication US10450279B2 (priority 2014, dated 2019).

Holding throughout (assay type): cell-based
What all share (conditions): relative growth vs active compound-free control (100%), 405 nm, 7 days after inoculation

One assay deals with Septoria tritici. Nature of the assay: Activity against leaf blotch on wheat caused by Septoria tritici (Septtr), microtiterplate test.
Another assay deals with Botrytis cinerea. Nature of the assay: Activity against the grey mold Botrytis cinerea in the microtiterplate test (Botrci).
The next assay relates to Pyricularia oryzae.

`CC(C)(C)C(O)(Cn1cncn1)c1ccc(Oc2ccccc2C(F)(F)F)cc1` (stereo not drawn) [compound 47]: the “Growth (%) at 8 ppm Septtr” value in the assay on Septoria tritici amounted to 0%. Moreover, the “Growth (%) at 31 ppm Botrci” value in the assay with Botrytis cinerea is 15%. For the same compound, the “Growth (%) at 31 ppm Pyrior” value in the assay on Pyricularia oryzae was 1%.
Taken in the same sequence, the figures for `CC(O)(Cn1cncn1)c1ccc(Oc2ccc(Cl)cc2)cc1Cl` (stereo not drawn) [compound 31] were 0%, 3% and 2%.
In the case of `CC(C)(C)C(O)(Cn1cncn1)c1ccc(Oc2ccc(F)cc2)cc1` (stereo not drawn) [compound 44], in the assay on Septoria tritici, the “Growth (%) at 8 ppm Septtr” value was determined as 0%. Further, in the assay on Botrytis cinerea, the “Growth (%) at 31 ppm Botrci” value was 1%. The “Growth (%) at 31 ppm Pyrior” value with Pyricularia oryzae turned out to be 0%.
Take `CC(O)(Cn1cncn1)c1ccc(Oc2ccc(F)cc2)cc1C(F)(F)F` (stereo not drawn) [compound 28]: the “Growth (%) at 8 ppm Septtr” value with Septoria tritici amounted to 0%. The “Growth (%) at 31 ppm Botrci” value in the assay on Botrytis cinerea worked out at 0%. For the same compound, the “Growth (%) at 31 ppm Pyrior” value in the assay with Pyricularia oryzae amounted to 7%.
For `OC(Cn1cncn1)(c1ccc(Oc2ccc(Cl)cc2)cc1Cl)C1CC1` (stereo not drawn) [compound 42], the “Growth (%) at 8 ppm Septtr” value in the assay on Septoria tritici is listed as 0%. Further, the “Growth (%) at 31 ppm Botrci” value in the assay on Botrytis cinerea was 3%. In the assay with Pyricularia oryzae, the “Growth (%) at 31 ppm Pyrior” value is reported as 1%.
For the compound `OC(Cn1cncn1)(c1ccc(Oc2ccc(F)cc2)cc1Cl)C1CC1` (stereo not drawn) [compound 37], the “Growth (%) at 8 ppm Septtr” value in the assay on Septoria tritici amounted to 0%. For the same compound, the “Growth (%) at 31 ppm Botrci” value in the assay on Botrytis cinerea is listed as 1%. Moreover, the “Growth (%) at 31 ppm Pyrior” value in the assay with Pyricularia oryzae amounted to 1%.
As for `CC(C)(C)C(O)(Cn1cncn1)c1ccc(Oc2ccc(Cl)cc2)cc1` (stereo not drawn) [compound 43], the “Growth (%) at 8 ppm Septtr” value in the assay with Septoria tritici is 0%. Also, in the assay with Botrytis cinerea, the “Growth (%) at 31 ppm Botrci” value was 3%.
For `OC(Cn1cncn1)(c1ccc(Oc2ccc(F)cc2F)cc1Cl)C1CC1` (stereo not drawn) [compound 41], the “Growth (%) at 8 ppm Septtr” value with Septoria tritici is given as 0%. The “Growth (%) at 31 ppm Botrci” value in the assay on Botrytis cinerea is 1%. The “Growth (%) at 31 ppm Pyrior” value with Pyricularia oryzae is recorded as 0%.
`CC(O)(Cn1cncn1)c1ccc(Oc2ccc(C(F)(F)F)cc2)cc1Cl` (stereo not drawn) [compound 36]: the “Growth (%) at 31 ppm Pyrior” value in the assay with Pyricularia oryzae is on record as 14%.
In the case of `CC(O)(Cn1cncn1)c1ccc(Oc2ccc(C(F)(F)F)cc2)cc1C(F)(F)F` (stereo not drawn) [compound 27], the “Growth (%) at 8 ppm Septtr” value in the assay with Septoria tritici came to 0%. For the same compound, in the assay on Botrytis cinerea, the “Growth (%) at 31 ppm Botrci” value is 18%. Moreover, the “Growth (%) at 31 ppm Pyrior” value in the assay on Pyricularia oryzae amounted to 1%.
For the compound `CC(C)(C)C(O)(Cn1cncn1)c1ccc(Oc2ccc(Cl)cc2Cl)cc1` (stereo not drawn) [compound 46], the “Growth (%) at 8 ppm Septtr” value in the assay with Septoria tritici is listed as 4%. The “Growth (%) at 31 ppm Botrci” value in the assay with Botrytis cinerea is 6%. In addition, in the assay with Pyricularia oryzae, the “Growth (%) at 31 ppm Pyrior” value amounted to 2%.
As for `CC(C)(C)C(O)(Cn1cncn1)c1ccc(Oc2ccc(F)cc2F)cc1` (stereo not drawn) [compound 45], in the assay with Septoria tritici, the “Growth (%) at 8 ppm Septtr” value is 0%. Moreover, the “Growth (%) at 31 ppm Botrci” value in the assay on Botrytis cinerea was 0%. For the same compound, in the assay on Pyricularia oryzae, the “Growth (%) at 31 ppm Pyrior” value was 1%.
As to `CCC(O)(Cn1cncn1)c1ccc(Oc2ccc(F)cc2F)cc1Cl` (stereo not drawn) [compound 51], the “Growth (%) at 8 ppm Septtr” value in the assay on Septoria tritici turned out to be 0%. Besides, the “Growth (%) at 31 ppm Botrci” value in the assay on Botrytis cinerea is listed as 0%. Besides, the “Growth (%) at 31 ppm Pyrior” value in the assay on Pyricularia oryzae stood at 0%.
As for `OC(Cn1cncn1)(c1ccc(Oc2ccc(Cl)cc2Cl)cc1Cl)C1CC1` (stereo not drawn) [compound 39], the “Growth (%) at 8 ppm Septtr” value in the assay on Septoria tritici stood at 14%. The “Growth (%) at 31 ppm Botrci” value with Botrytis cinerea is listed as 0%. For the same compound, the “Growth (%) at 31 ppm Pyrior” value in the assay on Pyricularia oryzae was determined as 2%.
Regarding `OC(Cn1cncn1)(c1ccc(Oc2ccc(C(F)(F)F)cc2)cc1Cl)C1CC1` (stereo not drawn) [compound 40], the “Growth (%) at 8 ppm Septtr” value in the assay on Septoria tritici was found to be 2%. The “Growth (%) at 31 ppm Botrci” value in the assay with Botrytis cinerea was found to be 8%. Besides, in the assay with Pyricularia oryzae, the “Growth (%) at 31 ppm Pyrior” value worked out at 1%.
With `CC(O)(Cn1cncn1)c1ccc(Oc2ccccc2C(F)(F)F)cc1Cl` (stereo not drawn) [compound 35], in the assay with Septoria tritici, the “Growth (%) at 8 ppm Septtr” value worked out at 0%. Further, the “Growth (%) at 31 ppm Botrci” value in the assay with Botrytis cinerea is listed as 1%. Also, in the assay on Pyricularia oryzae, the “Growth (%) at 31 ppm Pyrior” value was found to be 1%.
Turning to `CC(O)(Cn1cncn1)c1ccc(Oc2ccccc2C(F)(F)F)cc1C(F)(F)F` (stereo not drawn) [compound 26], in the assay on Septoria tritici, the “Growth (%) at 8 ppm Septtr” value amounted to 1%.
Turning to `CCC(O)(Cn1cncn1)c1ccc(Oc2ccccc2C(F)(F)F)cc1Cl` (stereo not drawn) [compound 53], the “Growth (%) at 8 ppm Septtr” value in the assay on Septoria tritici is 0%. Moreover, the “Growth (%) at 31 ppm Botrci” value with Botrytis cinerea came to 3%. For the same compound, the “Growth (%) at 31 ppm Pyrior” value in the assay on Pyricularia oryzae is given as 2%.
Consider `CCC(O)(Cn1cncn1)c1ccc(Oc2ccc(Cl)cc2Cl)cc1Cl` (stereo not drawn) [compound 52], for which the “Growth (%) at 8 ppm Septtr” value in the assay with Septoria tritici came to 0%. Also, the “Growth (%) at 31 ppm Botrci” value in the assay with Botrytis cinerea stood at 3%. Further, the “Growth (%) at 31 ppm Pyrior” value in the assay with Pyricularia oryzae is 1%.
Consider `CC(C)(C)C(O)(Cn1cncn1)c1ccc(Oc2ccc(C(F)(F)F)cc2)cc1` (stereo not drawn) [compound 48], for which, in the assay with Septoria tritici, the “Growth (%) at 8 ppm Septtr” value is on record as 0%. Besides, the “Growth (%) at 31 ppm Pyrior” value with Pyricularia oryzae stood at 1%.
As for `OC(Cn1cncn1)(c1ccc(Oc2ccccc2C(F)(F)F)cc1Cl)C1CC1` (stereo not drawn) [compound 38], the “Growth (%) at 8 ppm Septtr” value in the assay with Septoria tritici stood at 1%. In addition, the “Growth (%) at 31 ppm Botrci” value in the assay on Botrytis cinerea was determined as 2%. Also, in the assay with Pyricularia oryzae, the “Growth (%) at 31 ppm Pyrior” value turned out to be 1%.
As for `CC(O)(Cn1cncn1)c1ccc(Oc2ccc(Cl)cc2Cl)cc1Cl` (stereo not drawn) [compound 32], the “Growth (%) at 8 ppm Septtr” value in the assay with Septoria tritici worked out at 12%. In the assay with Botrytis cinerea, the “Growth (%) at 31 ppm Botrci” value stood at 9%. For the same compound, in the assay on Pyricularia oryzae, the “Growth (%) at 31 ppm Pyrior” value stood at 3%.
Regarding `CC(O)(Cn1cncn1)c1ccc(Oc2ccc(Cl)cc2)cc1C(F)(F)F` (stereo not drawn) [compound 24], in the assay with Septoria tritici, the “Growth (%) at 8 ppm Septtr” value is 0%. The “Growth (%) at 31 ppm Botrci” value in the assay on Botrytis cinerea was 0%. Besides, the “Growth (%) at 31 ppm Pyrior” value in the assay with Pyricularia oryzae was determined as 0%.
Regarding `CC(O)(Cn1cncn1)c1ccc(Oc2ccc(F)cc2F)cc1Cl` (stereo not drawn) [compound 34], in the assay with Septoria tritici, the “Growth (%) at 8 ppm Septtr” value is 0%. Further, the “Growth (%) at 31 ppm Botrci” value in the assay on Botrytis cinerea was 1%. In the assay with Pyricularia oryzae, the “Growth (%) at 31 ppm Pyrior” value came out at 0%.
As to `CCC(O)(Cn1cncn1)c1ccc(Oc2ccc(F)cc2)cc1Cl` (stereo not drawn) [compound 50], in the assay with Septoria tritici, the “Growth (%) at 8 ppm Septtr” value amounted to 0%. In the assay with Botrytis cinerea, the “Growth (%) at 31 ppm Botrci” value is listed as 2%. The “Growth (%) at 31 ppm Pyrior” value with Pyricularia oryzae is 9%.
Taken in the same sequence, the figures for `CCC(O)(Cn1cncn1)c1ccc(Oc2ccc(Cl)cc2)cc1Cl` (stereo not drawn) [compound 49] were 3%, 2% and 1%.
With `CCC(O)(Cn1cncn1)c1ccc(Oc2ccc(C(F)(F)F)cc2)cc1Cl` (stereo not drawn) [compound 54], the “Growth (%) at 8 ppm Septtr” value with Septoria tritici stood at 0%. In addition, in the assay on Botrytis cinerea, the “Growth (%) at 31 ppm Botrci” value is recorded as 4%. Moreover, the “Growth (%) at 31 ppm Pyrior” value with Pyricularia oryzae is recorded as 2%.
For `CC(O)(Cn1cncn1)c1ccc(Oc2ccc(F)cc2)cc1Cl` (stereo not drawn) [compound 33] the same measures were 1%, 0% and 0%.
Taken in the same sequence, the figures for `CC(O)(Cn1cncn1)c1ccc(Oc2ccc(Cl)cc2Cl)cc1C(F)(F)F` (stereo not drawn) [compound 25] were 0%, 3% and 2%.
Taken in the same sequence, the figures for `CC(O)(Cn1cncn1)c1ccc(Oc2ccc(F)cc2F)cc1C(F)(F)F` (stereo not drawn) [compound 29] were 5%, 0% and 0%.
